Source: PubChem BioAssay AID230 (DTP/NCI, 2004)
“And” between values parts separate entries of the source, which are not always exact repeats. Identical values can stand only once. Toxic doses and inconclusive results are not listed.

Tested on: C3H/He mice, Gardner lymphosarcoma 6C3HED ip, survival T/C
Test: NCI In Vivo Anticancer Drug Screen. Data for tumor model Lymphosarcoma Gardner 6C3HED (intraperitoneal) in C3H/He mice
Conditions: higher = longer survival
Method: The antitumor activity of compounds was measured in mice bearing transplantable tumors. Survival or tumor size were measured and the results are expressed as the measurement made in the treated group (T) divided by the measurement made in the vehicle treated control group (C). The tumor model used in this assay is Lymphosarcoma Gardner 6C3HED (intraperitoneal) in C3H/He mice

[1] = endpoint: median survival time, dose: 100.0 mg/kg/injection, schedule: Q01DX005 (ip), vehicle: water
[2] = endpoint: median survival time, dose: 200.0 mg/kg/injection, schedule: Q01DX005 (ip), vehicle: water
[3] = endpoint: median survival time, dose: 400.0 mg/kg/injection, schedule: Q01DX005 (ip), vehicle: water
[4] = endpoint: median survival time, dose: 800.0 mg/kg/injection, schedule: Q01DX005 (ip), vehicle: water
[5] = endpoint: survival time, mean or median, dose: 5.0 mg/kg/injection, schedule: Q01DX010 (ip), vehicle: saline
[6] = endpoint: survival time, mean or median, dose: 10.0 mg/kg/injection, schedule: Q01DX010 (ip), vehicle: saline
[7] = endpoint: survival time, mean or median, dose: 20.0 mg/kg/injection, schedule: Q01DX010 (ip), vehicle: saline
[8] = endpoint: survival time, mean or median, dose: 40.0 mg/kg/injection, schedule: Q01DX010 (ip), vehicle: saline
[9] = endpoint: survival time, mean or median, dose: 50.0 mg/kg/injection, schedule: Q01DX010 (ip), vehicle: saline
[10] = endpoint: survival time, mean or median, dose: 0.13 mg/kg/injection, schedule: Q01DX010 (ip), vehicle: saline
[11] = endpoint: survival time, mean or median, dose: 0.25 mg/kg/injection, schedule: Q01DX010 (ip), vehicle: saline
[12] = endpoint: survival time, mean or median, dose: 125.0 micrograms/kg/injection, schedule: Q01DX010 (ip), vehicle: saline
[13] = endpoint: survival time, mean or median, dose: 250.0 micrograms/kg/injection, schedule: Q01DX010 (ip), vehicle: saline
[14] = endpoint: survival time, mean or median, dose: 125.0 mg/kg/injection, schedule: Q01DX010 (ip), vehicle: saline
[15] = endpoint: survival time, mean or median, dose: 500.0 mg/kg/injection, schedule: Q01DX010 (ip), vehicle: saline
[16] = endpoint: survival time, mean or median, dose: 4.0 mg/kg/injection, schedule: Q01DX010 (ip), vehicle: saline
[17] = endpoint: survival time, mean or median, dose: 8.0 mg/kg/injection, schedule: Q01DX010 (ip), vehicle: saline
[18] = endpoint: survival time, mean or median, dose: 16.0 mg/kg/injection, schedule: Q01DX010 (ip), vehicle: saline
[19] = endpoint: survival time, mean or median, dose: 1.25 mg/kg/injection, schedule: Q01DX010 (ip), vehicle: saline

## NC(=O)CC(N)C(=O)O (stereo not given)
[1]
  T/C: 92 % of control
[2]
  T/C: 100 % of control
[3]
  T/C: 92 % of control
[4]
  T/C: 92 % of control

## O=c1[nH]c(=O)n(C2CC(O)C(CO)O2)cc1F (stereo not given)
[5]
  T/C: 115 % of control and 303 % of control
[6]
  T/C: 100 % of control and 115 % of control
[7]
  T/C: 107 % of control and 229 % of control
[8]
  T/C: 115 % of control and 212 % of control

## CN(C)/N=N/c1nc[nH]c1C(N)=O
endpoint: survival time, mean or median, dose: 25.0 mg/kg/injection, schedule: Q01DX010 (ip), vehicle: saline
  T/C: 300 % of control
[9]
  T/C: 300 % of control and 311 % of control
endpoint: survival time, mean or median, dose: 100.0 mg/kg/injection, schedule: Q01DX010 (ip), vehicle: saline
  T/C: 266 % of control and 300 % of control
endpoint: survival time, mean or median, dose: 200.0 mg/kg/injection, schedule: Q01DX010 (ip), vehicle: saline
  T/C: 118 % of control and 296 % of control

## CCC(=O)O[C@H]1CC[C@H]2[C@@H]3CCC4=CC(=O)CC[C@]4(C)[C@H]3CC[C@]12C
endpoint: survival time, mean or median, dose: 62.5 mg/kg/injection, schedule: Q01DX010 (sc), vehicle: steriod suspending solution
  T/C: 90 % of control
endpoint: survival time, mean or median, dose: 125.0 mg/kg/injection, schedule: Q01DX010 (sc), vehicle: steriod suspending solution
  T/C: 90 % of control
endpoint: survival time, mean or median, dose: 250.0 mg/kg/injection, schedule: Q01DX010 (sc), vehicle: steriod suspending solution
  T/C: 96 % of control
endpoint: survival time, mean or median, dose: 500.0 mg/kg/injection, schedule: Q01DX010 (sc), vehicle: steriod suspending solution
  T/C: 100 % of control

## CO[C@H](C(=O)[C@@H](O)[C@@H](C)O)[C@@H]1Cc2cc3cc(OC4CC(OC5CC(O)C(O)C(C)O5)C(O)C(C)O4)c(C)c(O)c3c(O)c2C(=O)[C@H]1OC1CC(OC2CC(OC3CC(C)(O)C(O)C(C)O3)C(O)C(C)O2)C(O)C(C)O1 (stereo not given in full)
[10]
  T/C: 111 % of control
[11]
  T/C: 123 % of control
endpoint: survival time, mean or median, dose: 1.0 mg/kg/injection, schedule: Q01DX010 (ip), vehicle: saline
  T/C: 300 % of control
endpoint: survival time, mean or median, dose: 2.0 mg/kg/injection, schedule: Q01DX010 (ip), vehicle: saline
  T/C: 188 % of control

## CS(=O)(=O)OCCCCOS(C)(=O)=O
endpoint: survival time, mean or median, dose: 1.56 mg/kg/injection, schedule: Q01DX010 (ip), vehicle: saline
  T/C: 95 % of control
endpoint: survival time, mean or median, dose: 3.13 mg/kg/injection, schedule: Q01DX010 (ip), vehicle: saline
  T/C: 90 % of control
endpoint: survival time, mean or median, dose: 6.25 mg/kg/injection, schedule: Q01DX010 (ip), vehicle: saline
  T/C: 95 % of control
endpoint: survival time, mean or median, dose: 12.5 mg/kg/injection, schedule: Q01DX010 (ip), vehicle: saline
  T/C: 104 % of control

## O[C@H](CN1CC1)[C@@H](O)CN1CC1
[12]
  T/C: 103 % of control
[13]
  T/C: 114 % of control and 203 % of control
endpoint: survival time, mean or median, dose: 500.0 micrograms/kg/injection, schedule: Q01DX010 (ip), vehicle: saline
  T/C: 169 % of control

## CC(=O)NC1=C(N2CC2)C(=O)C(NC(C)=O)=C(N2CC2)C1=O
[10]
  T/C: 117 % of control
[11]
  T/C: 92 % of control
endpoint: survival time, mean or median, dose: 0.5 mg/kg/injection, schedule: Q01DX010 (ip), vehicle: saline
  T/C: 103 % of control
endpoint: survival time, mean or median, dose: 63.0 micrograms/kg/injection, schedule: Q01DX010 (ip), vehicle: saline
  T/C: 170 % of control
[12]
  T/C: 204 % of control
[13]
  T/C: 114 % of control

## Nc1ncccc1C(=O)O
endpoint: survival time, mean or median, dose: 62.5 mg/kg/injection, schedule: Q01DX010 (ip), vehicle: saline
  T/C: 100 % of control
[14]
  T/C: 100 % of control
endpoint: survival time, mean or median, dose: 250.0 mg/kg/injection, schedule: Q01DX010 (ip), vehicle: saline
  T/C: 107 % of control
[15]
  T/C: 96 % of control

## CN(C)[C@@H]1C(=O)C(C(N)=O)=C(O)[C@@]2(O)C(=O)C3=C(O)c4c(O)cccc4C[C@H]3C[C@@H]12
endpoint: survival time, mean or median, dose: 3.75 mg/kg/injection, schedule: Q01DX010 (ip), vehicle: saline
  T/C: 93 % of control
endpoint: survival time, mean or median, dose: 7.5 mg/kg/injection, schedule: Q01DX010 (ip), vehicle: saline
  T/C: 90 % of control
endpoint: survival time, mean or median, dose: 15.0 mg/kg/injection, schedule: Q01DX010 (ip), vehicle: saline
  T/C: 90 % of control

## O=c1[nH]cnc2c1ncn2C1OC(CO)C(O)C1O (stereo not given)
endpoint: median survival time, dose: 12.5 mg/kg/injection, schedule: Q01DX003 (ip), vehicle: saline
  T/C: 90 % of control
endpoint: median survival time, dose: 12.5 mg/kg/injection, schedule: Q12HX006 (ip), vehicle: saline
  T/C: 101 % of control
endpoint: median survival time, dose: 25.0 mg/kg/injection, schedule: Q01DX003 (ip), vehicle: saline
  T/C: 95 % of control
endpoint: median survival time, dose: 25.0 mg/kg/injection, schedule: Q12HX006 (ip), vehicle: saline
  T/C: 104 % of control
endpoint: median survival time, dose: 50.0 mg/kg/injection, schedule: Q01DX003 (ip), vehicle: saline
  T/C: 100 % of control
endpoint: median survival time, dose: 50.0 mg/kg/injection, schedule: Q12HX006 (ip), vehicle: saline
  T/C: 106 % of control

## Nc1nc2n[nH]nc2c(=O)[nH]1
endpoint: survival time, mean or median, dose: 25.0 mg/kg/injection, schedule: Q01DX010 (ip), vehicle: alkali diluted with saline
  T/C: 109 % of control
endpoint: survival time, mean or median, dose: 50.0 mg/kg/injection, schedule: Q01DX010 (ip), vehicle: alkali diluted with saline
  T/C: 115 % of control and 118 % of control
endpoint: survival time, mean or median, dose: 100.0 mg/kg/injection, schedule: Q01DX010 (ip), vehicle: alkali diluted with saline
  T/C: 120 % of control
endpoint: survival time, mean or median, dose: 200.0 mg/kg/injection, schedule: Q01DX010 (ip), vehicle: alkali diluted with saline
  T/C: 100 % of control

## CCN(CC)C(=S)S
[14]
  T/C: 93 % of control
[15]
  T/C: 96 % of control

## CS(=O)(=O)OCCC(=O)N1CCN(C(=O)CCOS(C)(=O)=O)CC1
[9]
  T/C: 207 % of control and 267 % of control

## CN1CC[C@]23c4c5ccc(O)c4O[C@H]2C(=O)CC[C@H]3[C@H]1C5
[16]
  T/C: 103 % of control
[17]
  T/C: 100 % of control
[18]
  T/C: 103 % of control
endpoint: survival time, mean or median, dose: 32.0 mg/kg/injection, schedule: Q01DX010 (ip), vehicle: saline
  T/C: 90 % of control and 100 % of control

## CO[C@@H]1[C@@H](OC2OC(C)C(OC3CC(C)(O)C(OC(=O)CC(C)C)C(C)O3)C(N(C)C)C2O)[C@@H](CC=O)C[C@@H](C)C(=O)/C=C/C2O[C@H]2C[C@@H](C)OC(=O)C[C@H]1OC(C)=O (stereo not given in full)
endpoint: survival time, mean or median, dose: 18.8 mg/kg/injection, schedule: Q01DX010 (ip), vehicle: saline
  T/C: 94 % of control
endpoint: survival time, mean or median, dose: 37.5 mg/kg/injection, schedule: Q01DX010 (ip), vehicle: saline
  T/C: 102 % of control

## CCCCn1cnc2c(=S)nc[nH]c21
[16]
  T/C: 100 % of control
[17]
  T/C: 93 % of control
[18]
  T/C: 90 % of control and 92 % of control

## NC(CC(=O)NO)C(=O)O (stereo not given)
[1]
  T/C: 96 % of control
[2]
  T/C: 107 % of control
[3]
  T/C: 115 % of control
[4]
  T/C: 111 % of control

## NC(Cc1ccc(N(CCCl)CCCl)cc1)C(=O)O (stereo not given)
[19]
  T/C: 107 % of control
[5]
  T/C: 89 % of control and 119 % of control

## CC[C@@H](c1ccc(O)cc1)[C@@H](CC)c1ccc(O)cc1
endpoint: survival time, mean or median, dose: 25.0 mg/kg/injection, schedule: Q01DX010 (sc), vehicle: water
  T/C: 96 % of control
endpoint: survival time, mean or median, dose: 50.0 mg/kg/injection, schedule: Q01DX010 (sc), vehicle: water
  T/C: 93 % of control
endpoint: survival time, mean or median, dose: 100.0 mg/kg/injection, schedule: Q01DX010 (sc), vehicle: water
  T/C: 93 % of control

## CC(N)(CC(=O)O)C(=O)O (stereo not given)
endpoint: median survival time, dose: 3.12 mg/kg/injection, schedule: Q01DX009 (ip), vehicle: saline
  T/C: 90 % of control and 98 % of control
endpoint: median survival time, dose: 6.25 mg/kg/injection, schedule: Q01DX009 (ip), vehicle: saline
  T/C: 96 % of control
endpoint: median survival time, dose: 12.5 mg/kg/injection, schedule: Q01DX009 (ip), vehicle: saline
  T/C: 92 % of control and 99 % of control
endpoint: median survival time, dose: 25.0 mg/kg/injection, schedule: Q01DX009 (ip), vehicle: saline
  T/C: 86 % of control
endpoint: median survival time, dose: 50.0 mg/kg/injection, schedule: Q01DX009 (ip), vehicle: saline
  T/C: 101 % of control

## O=C(O)c1[nH]c(=O)[nH]c(=O)c1F
[19]
  T/C: 111 % of control
endpoint: survival time, mean or median, dose: 2.5 mg/kg/injection, schedule: Q01DX010 (ip), vehicle: saline
  T/C: 95 % of control and 107 % of control
[5]
  T/C: 92 % of control and 103 % of control
[6]
  T/C: 96 % of control

## COc1cc(-c2ccc(Nc3ccccc3C(=O)O)c(OC)c2)ccc1N
[5]
  T/C: 110 % of control
[6]
  T/C: 96 % of control and 107 % of control
[7]
  T/C: 92 % of control
[8]
  T/C: 89 % of control and 96 % of control
endpoint: survival time, mean or median, dose: 80.0 mg/kg/injection, schedule: Q01DX010 (ip), vehicle: saline
  T/C: 89 % of control
